Test results: patent US5932555A (priority 1997, dated 1999)
≈ marks a conversion by molar mass, not a printed value. Read-outs that look alike come from different tables or passages of the source.

Legend:
P388 [1] = assay: Cytotoxicity test on cultured tumor cell line P388 (MTT, 72 h); assay type: cell-based; details: Mus musculus, P388, 72 h, read-out: IC50 (growth inhibition)
Experimental: (§1) Cultured tumor cell lines P388 and P388/ADR were suspended in RPMI1640 medium containing 10% heat inactivated fetal calf serum (FCS) and 20 μM 2-mercaptoethanol whereby a cell suspension (5×10^4 cells/ml) was prepared.
72 hours thereafter, cell growth was measured by a calorimetric assay method using 3-(4,5-dimethyl-2-thiazolyl)-2,5-diphenyl-2H-tetrazolium bromide (MTT) as follows: 20 μl of 2 mg/ml MTT solution was added to each well and the cells were incubated for 4 hours at 37° C. Thereafter, 50 μl of 50% dimethylformamide solution containing 20% sodium dodecyl sulfate was added to each well and allowed to stand, so that the formed violet formazan crystal was dissolved, and its absorbance at 570 nm was measured in a microplate absorbance photometer (Immunoreader) and used as an indicator of the growth.
(§2) Degree of inhibition=[1-(absorbance in presence of sample)/(absorbance in
(§3) absence of sample)]×100 (1)

[2] = tested on: adriamycin-resistant P388; assay: Cytotoxicity test on adriamycin-resistant P388 (P388/ADR) (MTT, 72 h); assay type: cell-based; details: Mus musculus, P388, 72 h, read-out: IC50 (growth inhibition)
Experimental: as §1
A sample examined was dissolved in methanol, then diluted with RPMI 1640 medium and subjected to serial 2-fold dilution starting at the concentration of 0.1 mg/ml. 180 μl of the cell suspension and 20 μl of the sample solution were added into a 96-well micro-titer plate and incubated at 37° C. in wet 5% CO2 gas/95% air. 72 hours thereafter, cell growth was measured by a calorimetric assay method using 3-(4,5-dimethyl-2-thiazolyl)-2,5-diphenyl-2H-tetrazolium bromide (MTT) as follows: 20 μl of 2 mg/ml MTT solution was added to each well and the cells were incubated for 4 hours at 37° C. Thereafter, 50 μl of 50% dimethylformamide solution containing 20% sodium dodecyl sulfate was added to each well and allowed to stand, so that the formed violet formazan crystal was dissolved, and its absorbance at 570 nm was measured in a microplate absorbance photometer (Immunoreader) and used as an indicator of the growth. The result was expressed in terms of the concentration of a sample at which growth was inhibited by 50% (IC50), which was determined from the relationship between sample concentrations and degrees of inhibition calculated using the following equation (1):
as §2, §3

P388 [3] = assay: Mouse in vivo antitumor test, P388 transplanted
Experimental: (§4) 2×10^5 cells of P388 or P388/ADR were inoculated intraperitoneally into each of CDF1 mice (male, each weighing 20 g, 10 animals/group), and from the next day, the test solution was administered at 10, 5, and 1 mg/kg body weight/day respectively by intraperitoneal injection of 200 μl sample at each concentration once a day for 10 successive days. The numbers with time of mice which survived after administration was counted and the average survival days and T/C (survival days of treated mice/survival days of control mice) were calculated. The average body weights after 10 days were also measured.

P388/ADR = assay: Mouse in vivo antitumor test, P388/ADR transplanted
Experimental: as §4

[4] = Repeated administration toxicity test (intraperitoneal); assay type: in vivo, mouse (CDF1); details: mouse, in vivo, ip, read-out: Fatality rate
Experimental: (§5) As the comparative control, test solutions of adriamycin were prepared in the same manner. […] The number with time of survived animals after administration and the average body weights on Days 0, 5, and 10 were determined.

CDF1 mice = assay: as above; assay type: in vivo, mouse (CDF1); details: for Body weight, Day 0: Day 0 (baseline); for Number of survived animals, Day 4 / Number of survived animals, Day 5 / Number of survived animals, Day 6 / Number of survived animals, Day 7 / Number of survived animals, Day 8 / Number of survived animals, Day 10: of 10
Experimental: as §5

[5] = tested on: rejection of the transplant; details: as an immunosuppressive agent, prior art; cited from earlier work
[6] = prior art, depending on case; cited from earlier work
[7] = P388, 1 mg/kg/day i.p. × 10 days
[8] = P388, 5 mg/kg/day i.p. × 10 days
[9] = P388, 10 mg/kg/day i.p. × 10 days
[10] = P388/ADR, 1 mg/kg/day i.p. × 10 days
[11] = P388/ADR, 5 mg/kg/day i.p. × 10 days
[12] = P388/ADR, 10 mg/kg/day i.p. × 10 days

What does the source list for `COc1cccc2c1C(=O)c1c(O)c3c(c(O)c1C2=O)C[C@@](O)(C(=O)CO)C[C@@H]3O[C@H]1C[C@H](N)[C@H](O)[C@H](C)O1` [Adriamycin]?
IC50 (P388 [1]): 0.027 µg/mL (≈ 0.0497 µM); IC50 [2]: 0.53 µg/mL (≈ 0.975 µM); T/C (P388 [3]; [7]): 120%; average survival days (P388 [3]; [7]): 12.4 days; T/C (P388 [3]; [8]): 81%; average survival days (P388 [3]; [8]): 8.4 days; T/C (P388 [3]; [9]): 76%; average survival days (P388 [3]; [9]): 7.8 days; therapeutic effect (improvement in survival rate) (P388 [3]; P388-transplanted mice, adriamycin 1 mg/kg/day vs 0406TP-1): same degree of therapeutic effect; therapeutic effect at high dosage (P388 [3]; more than 5 mg/kg body weight/day, due to its toxicity): did not show therapeutic effect; T/C (P388/ADR; [10]): 96%; average body weight after 10 days (P388/ADR; [10]): 23.5 g; average survival days (P388/ADR; [10]): 10.7 days; T/C (P388/ADR; [11]): 63%; average survival days (P388/ADR; [11]): 7.0 days; T/C (P388/ADR; [12]): 68%; average survival days (P388/ADR; [12]): 7.5 days; therapeutic effect (P388/ADR; P388/ADR-transplanted mice): did not show therapeutic effect; mortality ([4]; 1 mg/kg/day i.p. × 10 days): 0%; mortality ([4]; 5 mg/kg/day i.p. × 10 days): 70%; mortality ([4]; 10 mg/kg/day i.p. × 10 days): 100%; Body weight, Day 0 (CDF1 mice; 1 mg/kg/day i.p. group): 21.9 g; Number of survived animals, Day 4 (CDF1 mice; 1 mg/kg/day i.p. × 10 days): 10; Number of survived animals, Day 5 (CDF1 mice; 1 mg/kg/day i.p. × 10 days): 10; Number of survived animals, Day 6 (CDF1 mice; 1 mg/kg/day i.p. × 10 days): 10; Number of survived animals, Day 7 (CDF1 mice; 1 mg/kg/day i.p. × 10 days): 10; Number of survived animals, Day 8 (CDF1 mice; 1 mg/kg/day i.p. × 10 days): 10; Number of survived animals, Day 10 (CDF1 mice; 1 mg/kg/day i.p. × 10 days): 10; Body weight, Day 5 (CDF1 mice; 1 mg/kg/day i.p.): 23.5 g; Body weight, Day 10 (CDF1 mice; 1 mg/kg/day i.p.): 24.5 g; Body weight, Day 0 (CDF1 mice; 5 mg/kg/day i.p. group): 21.6 g; Number of survived animals, Day 4 (CDF1 mice; 5 mg/kg/day i.p. × 10 days): 10; Number of survived animals, Day 5 (CDF1 mice; 5 mg/kg/day i.p. × 10 days): 9; Number of survived animals, Day 6 (CDF1 mice; 5 mg/kg/day i.p. × 10 days): 9; Number of survived animals, Day 7 (CDF1 mice; 5 mg/kg/day i.p. × 10 days): 8; Number of survived animals, Day 8 (CDF1 mice; 5 mg/kg/day i.p. × 10 days): 3; Number of survived animals, Day 10 (CDF1 mice; 5 mg/kg/day i.p. × 10 days): 3; Body weight, Day 5 (CDF1 mice; 5 mg/kg/day i.p.): 21.0 g; Body weight, Day 10 (CDF1 mice; 5 mg/kg/day i.p.): 15.8 g; Body weight, Day 0 (CDF1 mice; 10 mg/kg/day i.p. group): 21.8 g; Number of survived animals, Day 4 (CDF1 mice; 10 mg/kg/day i.p. × 10 days): 10; Number of survived animals, Day 5 (CDF1 mice; 10 mg/kg/day i.p. × 10 days): 9; Number of survived animals, Day 6 (CDF1 mice; 10 mg/kg/day i.p. × 10 days): 8; Number of survived animals, Day 7 (CDF1 mice; 10 mg/kg/day i.p. × 10 days): 3; Number of survived animals, Day 8 (CDF1 mice; 10 mg/kg/day i.p. × 10 days): 0; Number of survived animals, Day 10 (CDF1 mice; 10 mg/kg/day i.p. × 10 days): 0; Body weight, Day 5 (CDF1 mice; 10 mg/kg/day i.p.): 17.7 g; survival in repeated administration (CDF1 mice; i.p. 10 days, in words): some animals in the group given adriamycin died; growth / body weight in repeated administration (CDF1 mice; i.p. 10 days, in words, vs control): growth was inferior to the control

What does the source list for `C=CC[C@@H]1/C=C(\C)C[C@H](C)C[C@H](OC)[C@H]2O[C@@](O)(C(=O)C(=O)N3CCCC[C@H]3C(=O)O[C@H](/C(C)=C/[C@@H]3CC[C@@H](O)[C@H](OC)C3)[C@H](C)[C@@H](O)CC1=O)[C@H](C)C[C@@H]2OC` [tacrorims (FK506)]?
immunosuppressive results [5]: preferable results; side effects [6]: obstacles to the pancreas and kidney
